Like-named read-outs stand apart in the source and are kept apart here.
Experiments:
[1] = tested on: P. falciparum strain 3D7 gametocytes; test: alamarBlue gametocyte viability assay, strain 3D7
[2] = tested on: P. falciparum strain HB3 gametocytes; test: alamarBlue gametocyte viability assay, strain HB3
[3] = tested on: P. falciparum strain Dd2 gametocytes; test: alamarBlue gametocyte viability assay, strain Dd2
HepG2 cells = test: Cytotoxicity in mammalian HepG2 cell line; conditions: for % Max response: HepG2; for IC50 / Emax: Homo sapiens; for Emax: HepG2, read-out: % Max response
[4] = tested on: Asexual parasites of P. falciparum strain 3D7; test: SYBR Green viability assay on asexual parasites; assay type: cell-based, Plasmodium falciparum; conditions: read-out: Activity against asexual parasites EC50
[5] = read-out: 3D7-IC50, Table 3, 11 concentrations, 1:3 dilution, three times
[6] = read-out: HB3-IC50, Table 3, 11 concentrations, 1:3 dilution, three times
[7] = read-out: Dd2-IC50, Table 3, 11 concentrations, 1:3 dilution, three times
[8] = Plasmodium falciparum, 3D7, read-out: 3D7-IC50
[9] = Plasmodium falciparum, HB3, read-out: HB3-IC50, Table 3, 11 concentrations, 1:3 dilution, three times
[10] = HepG2, read-out: IC50 (μM) in HepG2 cells
[11] = Plasmodium falciparum, 3D7, read-out: Gametocyte IC50
[12] = HepG2, read-out: IC50 (μM) in HepG2
[13] = Plasmodium falciparum, HB3, read-out: HB3-IC50
[14] = Plasmodium falciparum, DD2, read-out: Dd2-IC50
[15] = read-out: Gametocytocidal activity EC50, Table 6
[16] = Plasmodium falciparum, 3D7, read-out: Gametocytocidal activity EC50, Table 7
[17] = Plasmodium falciparum, 3D7, Table 7

## Cl.Cl.Cl.Cl.Cl.Cl.N.N.N.N.N.N.N.N.N.N.N.N.N.N.[O-2].[O-2].[Ru+3].[Ru+3].[Ru+4] [Ruthenium red]
[1]; [5]
  IC50: 935 nM
[2]; [6]
  IC50: 264 nM
[3]; [7]
  IC50: 526 nM

## Monensin sodium
[1]; [5]
  IC50: 200 nM
[1]; read-out: Gametocyte IC50, mean of at least 3 independent experiments, P. falciparum 3D7 gametocyte
  IC50: 254 nM
[2]; [6]
  IC50: 264 nM
HepG2 cells
  IC50 (μM) in HepG2: Inactive
  IC50 (μM) in HepG2 cells: Inactive
HepG2 cells; Table 2
  % Max response: 40%
HepG2 cells; Table 4
  % Max response: 40%
[3]; [7]
  IC50: 372 nM

## CCC(=O)N1CCN(c2ccc(-n3c(=O)ccc4cnc5ccc(-c6cnc7ccccc7c6)cc5c43)cc2C(F)(F)F)CC1 [Torin-1]
[1]; [5]
  IC50: 6620 nM
[2]; [6]
  IC50: 3720 nM
[3]; [7]
  IC50: 5260 nM

## CCN(CC)Cc1nccn1-c1ccc([N+](=O)[O-])cc1C(=O)c1ccccc1Cl [Nizofenone]
[1]; [8]
  IC50: 23500 nM
[2]; [9]
  IC50: 14800 nM

## COc1cc(NC(C)CCCN)c2ncccc2c1 (centres unmarked) [Primaquine, primaquine]
[2]; Plasmodium falciparum, HB3, read-out: IC50 against HB3 gametocytes
  IC50: 680 nM
HepG2 cells; [10]
  IC50: 17.8 µM
[3]; Plasmodium falciparum, DD2, read-out: IC50 against Dd2 gametocytes
  IC50: 1080 nM

## CC[C@@H](C(=O)[C@@H](C)[C@@H](O)[C@H](C)[C@@H]1O[C@@H]([C@@H](CC)C(=O)O)CC[C@@H]1C)[C@H]1O[C@]2(C=C[C@@H](O)[C@]3(CC[C@@](C)([C@H]4CC[C@](O)(CC)[C@H](C)O4)O3)O2)[C@H](C)C[C@@H]1C [Salinomycin monosodium]
[1]; [5]
  IC50: 100 nM
[2]; [6]
  IC50: 469 nM
[3]; [7]
  IC50: 296 nM

## CC[C@@H](C(=O)[C@@H](C)[C@@H](O)[C@H](C)[C@@H]1O[C@@H]([C@@H](CC)C(=O)O)CC[C@@H]1C)[C@H]1O[C@]2(C=C[C@@H](O)[C@]3(CC[C@@](C)([C@H]4CC[C@](O)(CC)[C@H](C)O4)O3)O2)[C@H](C)C[C@@H]1C [Salinomycin sodium]
[1]; [8]
  IC50: 100 nM
[1]; [11]
  IC50: 194 nM
[2]; [9]
  IC50: 372 nM
HepG2 cells
  Emax: -69%
HepG2 cells; [12]
  IC50: 29.6 µM
HepG2 cells; [10]
  IC50: 29.6 µM

## CNc1ccc2oc(C[C@H]3O[C@@]4(CC[C@H]3C)O[C@H]([C@H](C)C(=O)c3ccc[nH]3)[C@H](C)C[C@H]4C)nc2c1C(=O)O [Calcimycin]
[1]; [8]
  IC50: 2640 nM
[2]; [9]
  IC50: 5900 nM

## C/C=C1\NC(=O)[C@H]2CSSCC/C=C/[C@H](CC(=O)N[C@H](C(C)C)C(=O)N2)OC(=O)[C@H](C(C)C)NC1=O [Romidepsin]
[1]; [8]
  IC50: 200 nM
[1]; [11]
  IC50: 637 nM
[2]; [9]
  IC50: 148 nM
HepG2 cells
  Emax: -98%
HepG2 cells; [12]
  IC50: 0.074 µM
HepG2 cells; [10]
  IC50: 0.074 µM

## CCN(CC)CCCC(C)Nc1ccnc2cc(Cl)ccc12 (centres unmarked) [Chloroquine diphosphate]
[1]; [8]
  IC50: 200 nM
[2]; [13]
  IC50: 935 nM
[3]; [14]
  IC50: 935 nM

## COc1cc(NC(C)CCCN)c2ncccc2c1 (centres unmarked) [Primaquine diphosphate]
[2]; [13]
  IC50: 679 nM
[3]; [14]
  IC50: 1080 nM

## O=c1ccc2cnc3ccc(-c4ccc5[nH]cnc5c4)cc3c2n1-c1cccc(C(F)(F)F)c1
[1]; [15]
  EC50: 96 nM
[4]; Table 6
  EC50: 37 nM

## Nc1ccc(-c2ccc3ncc4[nH]c(=O)n(-c5cccc(C(F)(F)F)c5)c4c3c2)cn1
[1]; [16]
  EC50: 88 nM
[4]; [17]
  EC50: 105 nM

## CN(C)C(=O)c1cccc(-n2c(=O)ccc3cnc4ccc(-c5ccc(N)nc5)cc4c32)c1
[1]; [15]
  EC50: 1520 nM
[4]; Table 6
  EC50: 859 nM

## O=c1[nH]c2cnc3ccc(-c4cnc5ccccc5c4)cc3c2n1-c1cccc(C(F)(F)F)c1
[1]; [16]
  EC50: 212000 nM
[4]; [17]
  EC50: 5780 nM

## S=C(SSC(=S)N1CCCCC1)N1CCCCC1 [Dicyclopentamethylenethiuram]
[1]; [5]
  IC50: 200 nM
[2]; [6]
  IC50: 743 nM
[3]; [7]
  IC50: 743 nM

## CS(=O)(=O)c1ccc(-c2ccc3ncc4ccc(=O)n(-c5cccc(C(F)(F)F)c5)c4c3c2)cc1
[1]; [15]
  EC50: 491 nM
[4]; Table 6
  EC50: 266 nM

## Nc1ncc(-c2ccc3ncc4[nH]c(=O)n(-c5cccc(C(F)(F)F)c5)c4c3c2)cn1
[1]; [16]
  EC50: 246 nM
[4]; [17]
  EC50: 57 nM

## Cc1cc(NC2CCCCC2)nc(-n2nc(C)cc2C)n1 [CyPPA]
[1]; [5]
  IC50: 469 nM
[2]; [6]
  IC50: 743 nM
[3]; [7]
  IC50: 590 nM

## Cc1ccc(-c2ccc3ncc4[nH]c(=O)n(-c5cccc(C(F)(F)F)c5)c4c3c2)cn1
[1]; [16]
  EC50: 443 nM
[4]; [17]
  EC50: 59 nM

## O=c1[nH]c2cnc3ccc(-c4ccncc4)cc3c2n1-c1cccc(C(F)(F)F)c1
[1]; [16]
  EC50: 1240 nM
[4]; [17]
  EC50: 211 nM

## CN(C)Cc1ccc2ncc3ccc(=O)n(-c4cccc(C(F)(F)F)c4)c3c2c1
[1]; [15]
  EC50: 666 nM
[4]; Table 6
  EC50: 242 nM

## CNC(=O)c1ccc(-c2ccc3ncc4ccc(=O)n(-c5cccc(C(F)(F)F)c5)c4c3c2)cc1
[1]; [15]
  EC50: 61 nM
[4]; Table 6
  EC50: 17 nM

## O=c1ccc2cnc3ccc(-c4ccc(-c5ccccc5)cc4)cc3c2n1-c1cccc(C(F)(F)F)c1
[1]; [15]
  EC50: 19300 nM
[4]; Table 6
  EC50: 15000 nM

## NS(=O)(=O)c1ccc(-c2ccc3ncc4ccc(=O)n(-c5cccc(C(F)(F)F)c5)c4c3c2)cc1
[1]; [15]
  EC50: 303 nM
[4]; Table 6
  EC50: 384 nM

## Cc1cccc(-n2c(=O)ccc3cnc4ccc(-c5ccc(N)nc5)cc4c32)c1
[1]; [15]
  EC50: 19 nM
[4]; Table 6
  EC50: 23 nM

## Cn1c(=O)n(-c2cccc(C(F)(F)F)c2)c2c3cc(-c4ccc(C(N)=O)nc4)ccc3ncc21
[1]; [16]
  EC50: 43 nM
[4]; [17]
  EC50: 8 nM

## Nc1ccc(-c2ccc3ncc4ccc(=O)n(C5CCCC5)c4c3c2)cn1
[1]; [15]
  EC50: 1260 nM
[4]; Table 6
  EC50: 882 nM

## O=c1ccc2cnc3ccc(-c4ccc(O)nc4)cc3c2n1-c1cccc(C(F)(F)F)c1
[1]; [15]
  EC50: 262 nM
[4]; Table 6
  EC50: 187 nM

## Nc1ccc(-c2ccc3ncc4ccc(=O)n(C5CCNCC5)c4c3c2)cn1
[1]; [15]
  EC50: 2800 nM
[4]; Table 6
  EC50: 2370 nM

## Nc1ccc(-c2ccc3ncc4[nH]c(=O)n(-c5cccc(C(F)(F)F)c5)c4c3c2)cc1
[1]; [16]
  EC50: 630 nM
[4]; [17]
  EC50: 153 nM

## O=c1[nH]c2cnc3ccc(-c4ccc5[nH]cnc5c4)cc3c2n1-c1cccc(C(F)(F)F)c1
[1]; [16]
  EC50: 543 nM
[4]; [17]
  EC50: 90 nM

## O=c1ccc2cnc3ccc(-c4ccc(N5CCCCC5)nc4)cc3c2n1-c1cccc(C(F)(F)F)c1
[1]; [15]
  EC50: 8090 nM
[4]; Table 6
  EC50: 4900 nM

## Nc1ccc(-c2ccc3ncc4ccc(=O)n(C5CCCCC5)c4c3c2)cn1
[1]; [15]
  EC50: 676 nM
[4]; Table 6
  EC50: 707 nM

## CS(=O)(=O)c1ccc(-c2ccc3ncc4[nH]c(=O)n(-c5cccc(C(F)(F)F)c5)c4c3c2)cc1
[1]; [16]
  EC50: 2050 nM
[4]; [17]
  EC50: 622 nM

## COc1cccc(-n2c(=O)ccc3cnc4ccc(-c5ccc(N)nc5)cc4c32)c1
[1]; [15]
  EC50: 137 nM
[4]; Table 6
  EC50: 95 nM

## O=c1ccc2cnc3ccc(-c4ccc(Cl)cc4)cc3c2n1-c1cccc(C(F)(F)F)c1
[1]; [15]
  EC50: 673 nM
[4]; Table 6
  EC50: 253 nM

## Cn1c(=O)n(-c2cccc(C(F)(F)F)c2)c2c3cc(-c4ccc(N)cc4)ccc3ncc21
[1]; [16]
  EC50: 69 nM
[4]; [17]
  EC50: 16 nM

## O=C1NCc2cc(-c3ccc4ncc5ccc(=O)n(-c6cccc(C(F)(F)F)c6)c5c4c3)ccc21
[1]; [15]
  EC50: 1790 nM
[4]; Table 6
  EC50: 517 nM

## CCN(CC)C(=S)SSC(=S)N(CC)CC [Tetraethylthiuram disulfide]
[2]; [13]
  IC50: 148 nM
[3]; [14]
  IC50: 296 nM

## Cn1c(=O)n(-c2cccc(C(F)(F)F)c2)c2c3cc(-c4ccc(C(N)=O)cc4)ccc3ncc21
[1]; [16]
  EC50: 109 nM
[4]; [17]
  EC50: 20 nM

## Cc1cc2cnc3ccc(-c4ccc(N)nc4)cc3c2n(-c2cccc(C(F)(F)F)c2)c1=O
[1]; Plasmodium falciparum, 3D7, read-out: Gametocytocidal activity EC50, Table 8
  EC50: 46 nM
[4]; Plasmodium falciparum, 3D7, Table 8
  EC50: 205 nM

## Nc1ccc(-c2ccc3ncc4ccc(=O)n(-c5ccc(N6CCNCC6)c(C(F)(F)F)c5)c4c3c2)cn1
[1]; [15]
  EC50: 10 nM
[4]; Table 6
  EC50: 9 nM

## Cc1nc(N)ncc1-c1ccc2ncc3ccc(=O)n(-c4cccc(C(F)(F)F)c4)c3c2c1
[1]; [15]
  EC50: 2260 nM
[4]; Table 6
  EC50: 1150 nM

## C=Cc1ccc2ncc3ccc(=O)n(-c4cccc(C(F)(F)F)c4)c3c2c1
[1]; [15]
  EC50: 4900 nM
[4]; Table 6
  EC50: 3240 nM

## C#Cc1cccc(Nc2ncnc3cc(OC)c(OCCCCCCC(=O)NO)cc23)c1 [CUDC-101]
[1]; [8]
  IC50: 800 nM
[2]; [13]
  IC50: 152 nM
[2]; gametocytes
  fold more potent against HB3 compared to 3D7: 5.5 fold
HepG2 cells; [10]
  IC50: 6.79 µM
HepG2 cells; Table 4
  % Max response: −76%

## O=c1ccc2cnc3ccc(-c4ccc(F)cc4)cc3c2n1-c1cccc(C(F)(F)F)c1
[1]; [15]
  EC50: 2660 nM
[4]; Table 6
  EC50: 580 nM

## CC(=O)Nc1ccc(-c2ccc3ncc4ccc(=O)n(-c5cccc(C(F)(F)F)c5)c4c3c2)cn1
[1]; [15]
  EC50: 114 nM
[4]; Table 6
  EC50: 106 nM

## Cn1c(=O)n(-c2cccc(C(F)(F)F)c2)c2c3cc(-c4cccc(C#N)c4)ccc3ncc21 [drawing 455]
[1]; read-out: Gametocytocidal activity EC50, Table 7
  EC50: 2820 nM
[4]; Table 7
  EC50: 546 nM

## CN(C)c1cccc(-c2ccc3ncc4ccc(=O)n(-c5cccc(C(F)(F)F)c5)c4c3c2)c1
[1]; [15]
  EC50: 3290 nM
[4]; Table 6
  EC50: 3250 nM

## O=c1ccc2cnc3ccc(-c4cccnc4)cc3c2n1-c1cccc(C(F)(F)F)c1
[1]; [15]
  EC50: 535 nM
[4]; Table 6
  EC50: 110 nM

## CCn1c(=O)ccc2cnc3ccc(-c4ccc(N)nc4)cc3c21
[1]; [15]
  EC50: 1650 nM
[4]; Table 6
  EC50: 1270 nM

Reference: US20160264570A1, “METHOD OF BLOCKING TRANSMISSION OF MALARIAL PARASITE” (THE UNITED STATES OF AMERICA, AS REPRESENTED BY THE …, priority 2013, published 2016)
